The values that follow come from PMC12463120, “Phenylalanine‐Based DNA‐Encoded Chemical Libraries for the Discovery of Potent and Selective Small Organic Ligands Against Markers of Cancer and Immune Cells” (Advanced Science, 2025).

The target in assay [1] is T1, NKG2D-Fc (Homo sapiens, UniProt P26718).
T1 construct: the extracellular domain of NKG2D was fused with an IgG Fc fragment; made in house; host or cells: CHO cells
T1 sequence (P26718 73-216 limits assumed): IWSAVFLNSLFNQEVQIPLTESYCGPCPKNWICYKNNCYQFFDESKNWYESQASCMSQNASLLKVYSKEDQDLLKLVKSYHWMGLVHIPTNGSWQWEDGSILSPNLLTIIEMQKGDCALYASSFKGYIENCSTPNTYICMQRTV
Description: ELISA affinity against NKG2D-Fc. The format is binding. Conditions: FITC derivatives; read-out: dissociation constant (KD) against NKG2D-Fc by ELISA. The method, then:
Selection results were decoded with C++^[ [61] ^] and visualized using MATLAB R2019b (MathWorks). EFs were calculated by dividing the DNA sequence counts for each hit compound by the average DNA sequence count from the corresponding DEL screening. Additionally, Z‐score values were calculated following methods previously published,^[ [60] ^] as present in Supporting Information. Hit compounds with high EFs in the target protein selections and low EFs in the negative controls (anti‐target and streptavidin selections) were selected for hit validation activities. All compounds were synthesized using either solid‐phase peptide synthesis or solution‐phase methodologies. Affinities of fluorescein‐bearing hits were determined by FP or ELISA measurements. […] ACP3 colorimetric inhibition assay was performed with serially diluted compounds at a fixed concentration (5 mM in PBS) of para‐nitrophenyl phosphate as substrate. Binding kinetics were assessed on a Biacore X100 instrument with the target protein immobilized on a CM5 chip at 4′000 RUs. Cell binding of fluorescent ligands was evaluated using flow cytometry against antigen‐positive and antigen‐negative (wild‐type) cancer cells. in vitro tissue uptake of ^177Lu‐labelled DOTAGA PSMA‐radioligands was measured via autoradiography. […]
Grenier 384 transparent, flat-bottom well plates were used. Each test compound was measured in triplicate. […]
For orientation: ELISA stands for enzyme-linked immunosorbent assay.

Assay [2] addresses T1, NKG2D-Fc. Description: Size-exclusion chromatography co-elution with NKG2D-Fc. The format is binding. (SEC sorts molecules by how far they enter the pores of the column.)

In the case of `CC(C)Oc1ccc(-c2cccc(C[C@H](NC(=O)c3ccccc3-c3ccc(C(F)(F)F)cc3)C(=O)N[C@@H](CCCCNC(=S)Nc3ccc4c(c3)C(=O)OC43c4ccc(O)cc4Oc4cc(O)ccc43)C(=O)O)c2)c(F)c1` [compound 30], the Kd on NKG2D-Fc [1] came to 133 nM. The “co-elution with NKG2D-Fc in size-exclusion chromatography” value on NKG2D-Fc [2] is recorded as “kinetically stable complex”.

What is called Kd is the free concentration of one partner at which half of the binding sites on the other are occupied at equilibrium, for simple one-to-one binding.
